Molecules are shown by their SMILES.

The values below come from patent US20110300222A1, “LUMINESCENT POROUS SILICON NANOPARTICLES, METHODS OF MAKING AND USING SAME” (THE REGENTS OF THE UNIVERSITY OF CALIFORNIA, priority 2009, published 2011).

For series [1] the following is noted: 25° C.; cited from earlier work.
Series [2] in a line: In vivo toxicity (body mass, histology of kidney, liver, spleen). Further details: species or system mouse. Particulars: mice n=3, 2 mgDOX/kg i.v., period of 3 weeks. How it is done:
In vivo degradation, toxicity, and circulation. All animal work was performed in accordance with the institutional animal protocol guidelines in place at the Burnham Institute for Medical Research, and it was reviewed and approved by the Institute's Animal Research Committee. […] For in vivo degradation studies, the mice were sacrificed 1 day, 1 week and 4 weeks after injection, and the brain, heart, kidney, liver, lung, and spleen were collected. The tissues were weighed, digested, and then analyzed for silicon content using ICP-OES. For the in vivo toxicity studies, the mass of each mouse was monitored for 4 weeks after injection and compared with control mice (PBS-injected). The sections of kidney, liver, and spleen tissues harvested from the mice 1 day and 4 weeks after injection were stained with haematoxylin and eosin and then examined by a pathologist.
To examine preliminary in vivo toxicity, body mass of the mice was monitored every 3 days over a period of 3 weeks.

The nature of series [3]: Biodistribution of DOX in mouse organs (DOX fluorescence). It counts as in vivo. Particulars: mice n=3, 24 h after single i.v. injection, 2 mgDOX/kg. The procedure:
To determine biodistribution of free DOX and DOX-LPSiNP in mouse, the organs (liver, spleen, kidney, lung, heart, and brain) were collected 24 h after injection, weighed, homogenized in 1.5 mL of 0.3 M HCl 70% ethanol solution, and further incubated in the same solution overnight to extract DOX molecules from the organs and DOX-LPSiNP. The homogenized solution was spun down at 10,000 rpm for 10 min and the supernatant was only used to measure the DOX fluorescence. The DOX fluorescence (λex=480nm and λem=590 nm) in each tissue was quantified as % injected dose (% ID) per gram of wet tissue.

For series [4] the following is noted: in ethanol; cited from earlier work.

In the case of `OB(O)O` [boric acid], the pKa (usually the pH at which an ionisable group is half protonated) in series [1] is recorded as 9.14.

`COc1cccc2c1C(=O)c1c(O)c3c(c(O)c1C2=O)C[C@@](O)(C(=O)CO)C[C@@H]3O[C@H]1C[C@H](N)[C@H](O)[C@H](C)O1` [free DOX, doxorubicin]: the “body mass (weight) change vs PBS control” value in series [2] is recorded as “no statistically significant difference”. For the same compound, the “biodistribution of DOX” value in series [3] is “accumulated in kidney, lung, and heart”.

In the case of `O=C(O)c1ccccc1C1=c2cc3c4c(c2Oc2c1cc1c5c2CCCN5CCC1)CCC[N+]=4CCC3.[Cl-]` [Rhodamine 101], the “quantum yield of standard” value in series [4] is recorded as 100%.
